# From patent publication US20240383904A1, “HETEROCYCLIC COMPOUNDS” (Hoffmann-La Roche Inc., priority 2021, published 2024)
# pIC50: −log10 of the molar value.
# Target: T1, MAGL (Homo sapiens, UniProt Q99685)
# T1 sequence (Q99685 1-303): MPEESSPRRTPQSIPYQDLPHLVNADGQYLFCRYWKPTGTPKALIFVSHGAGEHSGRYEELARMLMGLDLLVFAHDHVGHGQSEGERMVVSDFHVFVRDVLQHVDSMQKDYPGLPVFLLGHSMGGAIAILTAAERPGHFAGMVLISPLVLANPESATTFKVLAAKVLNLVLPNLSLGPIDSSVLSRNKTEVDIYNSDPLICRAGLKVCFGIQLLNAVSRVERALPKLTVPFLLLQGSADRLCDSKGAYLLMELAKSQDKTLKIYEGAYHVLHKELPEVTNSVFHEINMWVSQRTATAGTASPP
# Assay: 2-AG assay: MAGL inhibitory activity by hydrolysis of 2-arachidonoylglycerol to arachidonic acid, followed by mass spectrometry
# Format: biochemical
# Conditions: 15 min preincubation, 30 min reaction at RT, 8 μM 2-arachidonoylglycerol
row,pIC50,Structure (SMILES)
1,10.30,"O=C1NC2(CO1)CN(C(=O)N1CC3(CCC(Oc4cc(Cl)ccc4Cl)CC3)C1)C2 [Example 106, 2-[7-(2,5-dichlorophenoxy)-2-azaspiro[3.5]nonane-2-carbonyl]-7-oxa-2,5-diazaspiro[3.4]octan-6-one]"
2,10.10,O=C1NC2(CO1)CN(C(=O)N1CC3(CC(c4ccc(C(F)(F)F)cc4F)C3)C1)C2 [Example 107]
3,9.74,"O=C1NC2(CO1)CN(C(=O)N1CC3(CCC(Cc4ncc(F)cc4F)CC3)C1)C2 [Example 108, 2-[7-[(3,5-difluoro-2-pyridyl)methyl]-2-azaspiro[3.5]nonane-2-carbonyl]-7-oxa-2,5-diazaspiro[3.4]octan-6-one]"
4,9.68,"CS(=O)(=O)c1ccc(CC2CCC3(C2)CN(C(=O)N2CC4(COC(=O)N4)C2)C3)cc1C(F)(F)F (stereo not shown) [Example 109, 2-[6-[4-mesyl-3-(trifluoromethyl)benzyl]-2-azaspiro[3.4]octane-2-carbonyl]-7-oxa-2,5-diazaspiro[3.4]octan-6-one]"
5,9.62,"O=C1NC2(CO1)CN(C(=O)N1CC3(CCC(Cc4ccc(C(F)(F)F)nc4)C3)C1)C2 (stereo not shown) [Example 110, 2-[6-[[6-(trifluoromethyl)-3-pyridyl]methyl]-2-azaspiro[3.4]octane-2-carbonyl]-7-oxa-2,5-diazaspiro[3.4]octan-6-one]"
6,9.51,"O=C1NC2(CO1)CN(C(=O)N1CC3(CC[C@H](Cc4cnc(C(F)(F)F)cn4)C3)C1)C2 [Example 111, 2-[(6S)-6-[[5-(trifluoromethyl)pyrazin-2-yl]methyl]-2-azaspiro[3.4]octane-2-carbonyl]-7-oxa-2,5-diazaspiro[3.4]octan-6-one]"
7,9.24,"O=C1NC2(CO1)CN(C(=O)N1CC3(CCC(Cc4cnc(C(F)(F)F)cn4)CC3)C1)C2 [Example 112, 2-[7-[[5-(trifluoromethyl)pyrazin-2-yl]methyl]-2-azaspiro[3.5]nonane-2-carbonyl]-7-oxa-2,5-diazaspiro[3.4]octan-6-one]"
8,9.21,"O=C1NC2(CO1)CN(C(=O)N1CC3(CC[C@@H](Cc4cnc(C(F)(F)F)cn4)C3)C1)C2 [Example 113, 2-[(6R)-6-[[5-(trifluoromethyl)pyrazin-2-yl]methyl]-2-azaspiro[3.4]octane-2-carbonyl]-7-oxa-2,5-diazaspiro[3.4]octan-6-one]"
9,9.20,"O=C1NC2(CO1)CN(C(=O)N1CC3(CCC(NS(=O)(=O)c4cccc(OC(F)(F)F)c4)CC3)C1)C2 [Example 114, N-[2-(6-keto-7-oxa-2,5-diazaspiro[3.4]octane-2-carbonyl)-2-azaspiro[3.5]nonan-7-yl]-3-(trifluoromethoxy)benzene-sulfonamide]"
10,8.99,"O=C1NC2(CO1)CN(C(=O)N1CC3(CC(c4ccc(F)cc4)C3)C1)C2 [Example 115, 2-[6-(4-fluorophenyl)-2-azaspiro[3.3]heptane-2-carbonyl]-7-oxa-2,5-diazaspiro[3.4]octan-6-one]"
11,8.76,"O=C1CCC2(CN(C(=O)N3CC4(CCC(NS(=O)(=O)c5cccc(OC(F)(F)F)c5)CC4)C3)C2)N1 [Example 116, N-[2-(6-keto-2,5-diazaspiro[3.4]octane-2-carbonyl)-2-azaspiro[3.5]nonan-7-yl]-3-(trifluoromethoxy)benzene-sulfonamide]"
12,8.71,CS(=O)(=O)c1cc(C(F)(F)F)ccc1C1CC2(C1)CN(C(=O)N1CC3(COC(=O)N3)C1)C2 [Example 117]
13,8.60,"CS(=O)(=O)c1ccc(O[C@H]2CCC3(C2)CN(C(=O)N2CC4(COC(=O)N4)C2)C3)cc1C(F)(F)F [Example 118, 2-[(6S)-6-[4-mesy1-3-(trifluoromethyl)phenoxy]-2-azaspiro[3.4]octane-2-carbonyl]-7-oxa-2,5-diazaspiro[3.4]octan-6-one]"
14,8.53,"O=C1NC2(CO1)CN(C(=O)N1CC3(CC(NCC4(C(F)(F)F)CC4)C3)C1)C2 [Example 119, 2-[6-[[1-(trifluoromethyl)cyclopro-pyl]methylamino]-2-azaspiro[3.3]heptane-2-carbonyl]-7-oxa-2,5-diazaspiro[3.4]octan-6-one]"
15,8.53,"O=C1CCC2(CN(C(=O)N3CC4(CCC(Cc5ccc(Cl)cn5)CC4)C3)C2)N1 [Example 120, 2-[7-[(5-chloro-2-pyridyl)methyl]-2-azaspiro[3.5]nonane-2-carbonyl]-2,5-diazaspiro[3.4]octan-6-one]"
16,8.38,"O=C1CCC2(CN(C(=O)N3CC4(CCC(Cc5ccc(OC(F)F)nc5)CC4)C3)C2)N1 [Example 121, 2-[7-[[6-(difluoromethoxy)-3-pyridyl]methyl]-2-azaspiro[3.5]nonane-2-carbonyl]-2,5-diazaspiro[3.4]octan-6-one]"
17,8.36,"CS(=O)(=O)c1ccc(Cl)cc1OC1CCC2(CC1)CN(C(=O)N1CC3(COC(=O)N3)C1)C2 [Example 122, 2-[7-(5-chloro-2-mesyl-phenoxy)-2-azaspiro[3.5]nonane-2-carobnyl]-7-oxa-2,5-diazaspiro[3.4]octan-6-one]"

row,pIC50,Structure (SMILES)
1,8.35,"O=C1NC2(CO1)CN(C(=O)N1CC3(CCC(Oc4ncc(C(F)(F)F)cn4)CC3)C1)C2 [Example 123, 2-[7-[5-(trifluoromethyl)pyrimi-din-2-yl]oxy-2-azaspiro[3.5]nonane-2-carbonyl]-7-oxa-2,5-diazaspiro[3.4]octan-6-one]"
2,8.34,"CS(=O)(=O)c1ccc(C2CC3(C2)CN(C(=O)N2CC4(COC(=O)N4)C2)C3)cc1 [Example 124, 2-[6-(4-mesylphenyl)-2-azaspiro[3.3]heptane-2-carbonyl]-7-oxa-2,5-diazaspiro[3.4]octan-6-one]"
3,8.24,"O=C1CCC2(CN(C(=O)N3CC4(CCC(Cc5ncc(F)cc5F)CC4)C3)C2)N1 [Example 125, 2-[7-[(3,5-difluoro-2-pyridyl)methyl]-2-azaspiro[3.5]nonane-2-carbonyl]-2,5-diazaspiro[3.4]octan-6-one]"
4,7.67,"O=C1NC2(CO1)CN(C(=O)N1CC3(CC(c4cncc(F)c4)C3)C1)C2 [Example 126, 2-[6-(5-fluoro-3-pyridyl)-2-azaspiro[3.3]heptane-2-carbonyl]-7-oxa-2,5-diazaspiro[3.4]octan-6-one]"
5,7.51,"O=C1NCC2(CN(C(=O)N3CC4(CCC(OCC5(C(F)(F)F)CC5)CC4)C3)C2)N1 [Example 127, 2-[7-[[1-(trifluoromethyl)cyclopro-pyl]methoxy]-2-azaspiro[3.5]nonane-2-carbonyl]-2,5,7-triazaspiro[3.4]octan-6-one]"
6,7.29,"O=C1NCC2(CN(C(=O)N3CC4(CCC(Cc5ccc(OC(F)F)nc5)CC4)C3)C2)N1 [Example 128, 2-[7-[[6-(difluoromethoxy)-3-pyridyl]methyl]-2-azaspiro[3.5]nonane-2-carbonyl]-2,5,7-triazaspiro[3.4]octan-6-one]"
7,7.18,"O=C1CCC2(CN(C(=O)N3CC4(CCC(Nc5cnc(C(F)(F)F)cn5)CC4)C3)C2)N1 [Example 129, 2-[7-[[5-(trifluoromethyl)pyrazin-2-yl]amino]-2-azaspiro[3.5]nonane-2-carbonyl]-2,5-diazaspiro[3.4]octan-6-one]"
8,6.73,"O=C1NC2(CCO1)CN(C(=O)N1CC3(CCC(OCC4(C(F)(F)F)CC4)CC3)C1)C2 [Example 130, 2-[7-[[1-(trifluoromethyl)cyclopro-pyl]methoxy]-2-azaspiro[3.5]nonane-2-carbonyl]-7-oxa-2,5-diazaspiro[3.5]nonan-6-one]"
9,6.68,"O=C1CCC2(CN(C(=O)N3CC4(CC(n5cnc(C6CC6)n5)C4)C3)C2)N1 [Example 131, 2-[6-(3-cyclopropyl-1,2,4-triazol-1-yl)-2-azaspiro[3.3]heptane-2-carbonyl]-2,5-diazaspiro[3.4]octan-6-one]"
10,9.10,O=C1CCC2(CN(C(=O)N3CC4(CCN(Cc5ccc(C(F)(F)F)cc5F)CC4)C3)C2)N1 [Example 132]
11,7.88,"O=C1COCC2(CN(C(=O)N3CC4(CCC(Cc5ccc(OC(F)F)nc5)CC4)C3)C2)N1 [Example 133, 2-[7-[[6-(difluoromethoxy)-3-pyridyl]methyl]-2-azaspiro[3.5]nonane-2-carbonyl]-8-oxa-2,5-diazaspiro[3.5]nonan-6-one]"
12,7.72,"O=C1COCC2(CN(C(=O)N3CC4(CCN(Cc5cccc(S(=O)(=O)C(F)(F)F)c5)CC4)C3)C2)N1 [Example 134, 2-[7-(3-triflylbenzyl)-2,7-diazaspiro[3.5]nonane-2-carbonyl]-8-oxa-2,5-diazaspiro[3.5]nonan-6-one]"
13,9.00,O=C1NC2(CO1)CN(C(=O)N1CC3(CCN(Cc4ccc(C(F)(F)F)cc4F)CC3)C1)C2 [Example 135]
14,8.33,"O=C1CCC2(CN(C(=O)N3CC4(CCN(Cc5cccc(S(=O)(=O)C(F)(F)F)c5)CC4)C3)C2)N1 [Example 136, 2-[7-(3-triflylbenzyl)-2,7-diazaspiro[3.5]nonane-2-carbonyl]-2,5-diazaspiro[3.4]octan-6-one]"
15,9.01,"O=C1COCC2(CN(C(=O)N3CC4(CC(Cc5ccc(F)cc5F)C4)C3)C2)N1 [Example 137, 2-[6-(2,4-difluorobenzyl)-2-azaspiro[3.3]heptane-2-carbonyl]-8-oxa-2,5-diazaspiro[3.5]nonan-6-one]"
16,7.29,"O=C1COCC2(CN(C(=O)N3CC4(CC(Cc5cnc(C(F)(F)F)cn5)C4)C3)C2)N1 [Example 138, 2-[6-[[5-(trifluoromethyl)pyrazin-2-yl]methyl]-2-azaspiro[3.3]heptane-2-carbonyl]-8-oxa-2,5-diazaspiro[3.5]nonan-6-one]"
17,9.12,"O=C1NC2(CO1)CN(C(=O)N1CC3(CCN(Cc4cccc(S(=O)(=O)C(F)(F)F)c4)CC3)C1)C2 [Example 139, 2-[7-(3-triflylbenzyl)-2,7-diazaspiro[3.5]nonane-2-carbonyl]-7-oxa-2,5-diazaspiro[3.4]octan-6-one]"
